Results as given in patent US11873287B2, “Piperidine-2,6-dione derivatives and ulcerative colitis treating” (TIANJIN HEMAY PHARMACEUTICAL SCI-TECH CO., LTD, priority 2016, dated 2024).
“Also recorded” adds a separate entry of the source.

Experiments:
ICR mice = experiment: Acute toxicity experiment of single oral administration in mice; type: in vivo; settings: 1000 mg/Kg single oral dose
In short: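 Fasted ICR mice (19–21 g, 3 male and 3 female per group) received a single oral dose of 1000 mg/Kg, given first to one of each sex, then to the remaining four. Acute signs were scored over the first 15 min, then state, deaths and daily body weight over 7 days.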

[1] = tested on: DSS-Induced inflammatory Bowel Disease Models in Mice; experiment: DSS-induced inflammatory bowel disease model in mice (Biological Example 2, 0.9% DSS); type: in vivo, C57BL/6 mice; settings: 30 mg/Kg i.g. Q.D; for body weights during the whole experiment compared with model control group: 0.9% DSS; for colon length (Mean ± SD): 0.9% DSS 5 days, end of experiment
Protocol: 66 female C57BL/6 mice were randomly divided into 6 groups: normal control group, model control group, cyclosporine A (25 mg/Kg), 5-ASA (100 mg/Kg), the compound in Example 27 (30 mg/Kg) and the compound in Example 26 (30 mg/Kg). There were 11 mice in each group (see Table 4 below). Besides the normal control group, the remaining groups were induced with 0.9% DSS for 5 days. The day of induction was the first day of the test and then normal drinking water was administered for 4 days. The normal control group was administered with normal drinking water all the time. The model control group, 5-ASA group, the compound in Example 27 group and the compound in Example 26 group were administered with 1% CMC-Na or the corresponding drug every day from the first day of the experiment to the end of the experiment. The cyclosporine A group was administered with cyclosporine A every day from the first day of experiment to the fifth day of the experiment and was administered with the corresponding volume of 1% CMC-Na every day from the sixth day to the end of the experiment due to toxicity. The normal control group was administered with the corresponding volume of 1% CMC-Na every day. The animals were treated and the indexes were tested at the end of the experiment.
The compound in Example 27, the compound in Example 26, 5-ASA or Cyclosporine A: Preparation Method: Suspended with 1% CMC-Na, and prepared when it was needed.
One-Way Anova test was performed with SPSS 17.0. The colony length was analyzed statistically between groups.

[2] = tested on: DSS-Induced Inflammatory Bowel Disease Models in Mice; experiment: DSS-induced inflammatory bowel disease model in mice (Biological Example 1, 1.6% DSS); type: in vivo, C57BL/6J mice; settings: for colon length (Mean ± SD): 1.6% DSS 8 days, end of experiment
Protocol: Experimental animals: C57BL/6J mice, weight of 16-18 g
Piperidine-2,6-dione derivatives, 5-ASA or Cyclosporine A: Preparation Method: Suspended with 1% CMC-Na, and prepared when it was needed.
54 C57BL/6 mice were randomly divided into 6 groups: normal control group, model control group, Example 27 groups consisting of dose of 5 mg/Kg group, dose of 10 mg/Kg group and dose of 20 mg/Kg group, and cyclosporine A-25 mg/Kg group. There were 9 mice in each group (see Table 2 below). Besides the normal control group, the remaining groups were induced with 1.6% DSS for 8 days. Normal drinking water was then administered for 3 days. The normal control group was administered with normal drinking water all the time. The model control group and the compound in Example 27 group were administered with 1% CMC-Na or the corresponding drug every day until the end of the experiment. The cyclosporine A group was administered with the corresponding drug every day from the first day of experiment to the eighth day of the experiment and was administered with the corresponding volume of 1% CMC-Na every day from the ninth day to the end of the experiment due to toxicity. At the end of the experiment, the animals were treated and the indexes such as the colon length were tested.
The homogeneity of data variance test was performed by Spss13.0. Where the variance of data was homogeneous (P>0.05), one-way ANOVA LSD test was performed. Where the variance was inhomogeneous (P≤0.05), the data were treated with extraction of a root and homogeneity of data variance test was further performed. Where the variance of data was homogeneous (P>0.05), one-way ANOVA LSD test was performed. Where the variance was still inhomogeneous (P≤0.05), then Dunnett's multiple comparison (parameter method) was performed.

[3] = tested on: DSS-Induced inflammatory Bowel Disease Models in Mice; experiment: DSS-induced inflammatory bowel disease model in mice (Biological Example 5, 1.3% DSS); type: in vivo, C57BL/6 mice; settings: 30 mg/Kg i.g. Q.D, 1.3% DSS days 0-5
Protocol: 40 healthy female C57BL/6 mice having weight of 16-19 g were randomly divided into 4 groups in accordance with weight. There were 10 mice in each group (see Table 6 below). The first day of the experiment was recorded as Day 0. The administration regimen and induction regimen were detailed in Table 6. The change in weight of experimental animals was recorded every day. […] Samples of animal colonic tissues were obtained to measure the length. One-way ANOVA analysis of mice weights was performed by SPSS22. Statistical analyses between groups were performed. Mann-Whitney U non-parametric test was performed on the length of colon.
The experimental method used in the present biological example is identical to those in Biological Example 3.
One-way ANOVA analysis of mice body weights and colonic weights per length was performed by SPSS22. Statistical analyses between groups were performed.
Calculation Formula of Inhibitory Rate of Colonic Reduction: (Length of Colon in Administration Group−Length of Colon in Model Group)/(Length of Colon in Blank Group−Length of Colon in Model Group)

COCCCN1C(=O)CCC(N2C(=O)c3cccc(N)c3C2=O)C1=O (stereo not shown) [Example 26, 4-amino-2-(1-(3-methoxypropyl)-2,6-dioxopiperidin-3-yl)isoindolin-1,3-dione]
Daily Body Weight of Tested Female Mice (Mean ± SD) (ICR mice; Day 1): 18.0 ± 0.7 g
Daily Body Weight of Tested Male Mice (Mean ± SD) (ICR mice; Day 1): 18.7 ± 0.8 g
Daily Body Weight of Tested Female Mice (Mean ± SD) (ICR mice; Day 2): 21.9 ± 0.3 g
Daily Body Weight of Tested Male Mice (Mean ± SD) (ICR mice; Day 2): 23.4 ± 0.5 g
Daily Body Weight of Tested Female Mice (Mean ± SD) (ICR mice; Day 3): 22.1 ± 0.5 g
Daily Body Weight of Tested Male Mice (Mean ± SD) (ICR mice; Day 3): 25.0 ± 0.6 g
Daily Body Weight of Tested Female Mice (Mean ± SD) (ICR mice; Day 4): 22.4 ± 0.2 g
Daily Body Weight of Tested Male Mice (Mean ± SD) (ICR mice; Day 4): 26.6 ± 1.4 g
Daily Body Weight of Tested Female Mice (Mean ± SD) (ICR mice; Day 5): 22.7 ± 0.3 g
Daily Body Weight of Tested Male Mice (Mean ± SD) (ICR mice; Day 5): 27.3 ± 1.3 g
Daily Body Weight of Tested Female Mice (Mean ± SD) (ICR mice; Day 6): 22.6 ± 0.3 g
Daily Body Weight of Tested Male Mice (Mean ± SD) (ICR mice; Day 6): 28.3 ± 1.3 g
Daily Body Weight of Tested Female Mice (Mean ± SD) (ICR mice; Day 7): 22.4 ± 0.2 g
Daily Body Weight of Tested Male Mice (Mean ± SD) (ICR mice; Day 7): 28.8 ± 1.4 g
Summary of toxic response of tested animals in 7 Days (ICR mice; Female): Abnormality was not observed in 7 days of the test
Summary of toxic response of tested animals in 7 Days (ICR mice; Male): Abnormality was not observed in 7 days of the test
body weights during the whole experiment compared with model control group [1]: higher than that of the model control group
colon length (Mean ± SD) [1]: 6.3 ± 0.5 cm

COCCN1C(=O)CCC(N2C(=O)c3cccc(N)c3C2=O)C1=O (stereo not shown) [Example 27, 4-amino-2-(1-(2-methoxyethyl)-2,6-dioxopiperidin-3-yl)isoindolin-1,3-dione]
body weights during the whole experiment compared with model control group [1]: higher than that of the model control group
colon length (Mean ± SD) [1]: 6.3 ± 0.5 cm
Disease Activity Index (DAI) ([2]; 5 mg/Kg i.g. Q.D, 1.6% DSS): better than the DAI of model control group
relief of reduction in colon length in the model ([2]; 5 mg/Kg i.g. Q.D, 1.6% DSS): certain relief effects
colon length (Mean ± SD) ([2]; 5 mg/Kg i.g. Q.D): 6.1 ± 0.4 cm
Disease Activity Index (DAI) ([2]; 10 mg/Kg i.g. Q.D, 1.6% DSS): better than the DAI of model control group
colon length (Mean ± SD) ([2]; 10 mg/Kg i.g. Q.D): 6.2 ± 0.4 cm
Disease Activity Index (DAI) ([2]; 20 mg/Kg i.g. Q.D, 1.6% DSS): equivalent to the DAI of the normal control group and cyclosporine A group; also recorded: better than the DAI of model control group
body weight of the animals during the experiment ([2]; 20 mg/Kg i.g. Q.D, 1.6% DSS): continuous increase trend
relief of reduction in colon length in the model ([2]; 20 mg/Kg i.g. Q.D, 1.6% DSS): significant relief effects
colon length (Mean ± SD) ([2]; 20 mg/Kg i.g. Q.D): 6.4±0.4 cm
Length (cm, Mean ± SD) of colon [3]: 6.7 ± 0.4 cm
inhibition in vivo at 30 mg/kg ([3]; Mus musculus, po, read-out: Inhibitory Rate of Colonic Reduction): 81.8%
